Results: ChEMBL document CHEMBL1130851, “Synthesis and biological evaluation of a series of 2'-fluorinated-2',3'-dideoxy-2',3'-didehydro-(L)-nucleosides” (Bioorg Med Chem Lett, 1998)
pEC50, pIC50: −log10 of the molar value.

How the values were obtained:
[1] = tested on: CCRF-CEM; test: Compound concentration required to inhibit cell growth by 50% against CEM cells; format: functional; conditions: Homo sapiens, read-out: ID50 (the source's name)
[2] = tested on: Human immunodeficiency virus; test: Compound concentration required to inhibit the viral cell proliferation by 50% against HIV; Range = 0.3-0.5; format: functional, organism-based; conditions: Human immunodeficiency virus 1
[3] = Compound was tested for anti-HIV activity in MT-2/ IIIB cells and the ratio of the drug concentration (ID50) required to inhibit cell growth was reported.; format: functional, Homo sapiens
[4] = tested on: Hepatitis B virus; test: Compound concentration required to inhibit the viral cell proliferation by 50% against HBV; format: functional, organism-based
[5] = tested on: Human immunodeficiency virus; test: Compound concentration required to inhibit the viral cell proliferation by 50% against HIV; Range = 0.1-0.2; format: functional, organism-based; conditions: Human immunodeficiency virus 1
[6] = tested on: Human immunodeficiency virus; test: Compound concentration required to inhibit the viral cell proliferation by 50% against HIV; Range = 2-3; format: functional, organism-based; conditions: Human immunodeficiency virus 1

## Nc1nc(=O)n([C@@H]2CC[C@H](CO)O2)cc1F
[1]
  pIC50: 4.17
[2]
  pEC50: 6.52
[3]
  ID50 ratio: >100
[4]
  pEC50: 7.44

## Nc1nc(=O)n([C@@H]2C=C[C@H](CO)O2)cc1F [ELVUCITABINE]
[1]
  pIC50: 5.15
[5]
  pEC50: 7.00
[3]
  ID50 ratio: 9
[4]
  pEC50: 8.10

## Nc1ccn([C@@H]2CS[C@H](CO)O2)c(=O)n1 [LAMIVUDINE]
[1]
  pIC50: 4.30
[6]
  pEC50: 5.70
[3]
  ID50 ratio: >100
[4]
  pEC50: 7.52
